Results from US4647572A, “Iodoallyl and iodopropargyl substituted tetrazoles and anti-microbial compositions thereof” (Meiji Seika Kaisha, Ltd., priority 1982, dated 1987).
In brackets after ≈: the same amount, converted by molar mass.

What was measured:
Format in all cases: cell-based
[1] = system: Trichophyton metagrophytes 530324; assay: Antifungal Activity MIC (in medicinal field); details: read-out: Minimal Inhibitory Concentration (MIC)
[2] = system: Trichophyton interdigitale; assay: Antifungal Activity MIC (in medicinal field); details: read-out: Minimal Inhibitory Concentration (MIC)
[3] = system: Cryptococcus neoformans Cr-1; assay: Antifungal Activity MIC (in medicinal field); details: CR1, read-out: Minimal Inhibitory Concentration (MIC)
[4] = system: Candida albicans GA-24; assay: Antifungal Activity MIC (in medicinal field); details: GA24, read-out: Minimal Inhibitory Concentration (MIC)
[5] = system: Aspergillus fumigatus Saito; assay: Antifungal Activity MIC (in medicinal field); details: read-out: Minimal Inhibitory Concentration (MIC)
[6] = system: Bacillus anthracis No. 119; assay: microbe, parasite or virus in culture; details: NO.119, read-out: Minimal Inhibitory Conc.
[7] = system: Proteus vulgaris OX-19; assay: Minimal Inhibitory Concentration Method; details: Proteus vulgaris, OX19, read-out: Minimal Inhibitory Conc.
[8] = system: Staphylococcus aureus 209P JC-1; assay: Minimal Inhibitory Concentration Method; details: Staphylococcus aureus, 209P, read-out: Minimal Inhibitory Conc.
[9] = system: Serratia marcescens MB-3848; assay: Minimal Inhibitory Concentration Method; details: MB3848; Serratia marcescens MB-3848; read-out: Minimal Inhibitory Conc.
[10] = system: Pseudomonas cepacia M-0527; assay: Minimal Inhibitory Concentration Method; details: Burkholderia cepacia, M0527, read-out: Minimal Inhibitory Conc.
[11] = system: Klebsiella pneumoniae PCI 602; assay: Minimal Inhibitory Concentration Method; details: PCI602, read-out: Minimal Inhibitory Conc.
[12] = system: Pseudomonas maltiophilia M-0627; assay: Minimal Inhibitory Concentration Method; details: M0627, read-out: Minimal Inhibitory Conc.
[13] = system: Shigella sonnei EW 33 type I; assay: Minimal Inhibitory Concentration Method; details: EW33TYPEI, read-out: Minimal Inhibitory Conc.
From the text: (Minimal Inhibitory Concentration Method)
Minimal Inhibitory Conc. (mcg/ml)

[14] = system: Escherichia coli NIHJ JC-2; assay: Minimal Inhibitory Concentration Method; details: NIHJJC2, read-out: Minimal Inhibitory Conc.
[15] = system: Salmonella typhi 0-901-W; assay: Minimal Inhibitory Concentration Method; details: Salmonella enterica, read-out: Minimal Inhibitory Conc.
[16] = system: Escherichia coli NIHJ JC-2; assay: Antibacterial activity (Paper-disc method); details: read-out: Inhibition zone diameter; for zone of inhibition at 250 µg/mL: NIHJJC2, 250 γ/ml; for zone of inhibition at 500 µg/mL: NIHJJC2, 500 γ/ml
[17] = system: Sarcina lutea; assay: Antibacterial activity (Paper-disc method); details: Micrococcus luteus, read-out: Inhibition zone diameter; for zone of inhibition at 250 µg/mL: 250 γ/ml; for zone of inhibition at 500 µg/mL: 500 γ/ml
[18] = system: Staphylococcus aureus 209P; assay: Antibacterial activity (Paper-disc method); details: read-out: Inhibition zone diameter; for zone of inhibition at 250 µg/mL: 250 γ/ml; for zone of inhibition at 500 µg/mL: 500 γ/ml
[19] = system: Bacillus subtilis; assay: Antibacterial activity (Paper-disc method); details: read-out: Inhibition zone diameter; for zone of inhibition at 250 µg/mL: 250 γ/ml; for zone of inhibition at 500 µg/mL: 500 γ/ml

SMILES	MIC [1] [µg/mL]	MIC [2] [µg/mL]	MIC [3] [µg/mL]	MIC [4] [µg/mL]	MIC [5] [µg/mL]	other results
Cc1nnn(CC#CI)n1 [Compound No. 1, 2-(1'-iodopropyn-3'-yl)-5-methyltetrazole]	3.12 (≈ 12.6 µM)	6.25 (≈ 25.2 µM)	3.12 (≈ 12.6 µM)	6.25 (≈ 25.2 µM)	6.25 (≈ 25.2 µM)	–
Cc1nnnn1CC#CI [Compound No. 2, 1-(1'-Iodopropyn-3'-yl)-5-methyltetrazole]	0.78 (≈ 3.14 µM)	0.78 (≈ 3.14 µM)	0.78 (≈ 3.14 µM)	1.56 (≈ 6.29 µM)	0.75 (≈ 3.02 µM)	–
CCCc1nnn(CC#CI)n1 [Compound No. 5, 2-(1'-iodopropyn-3'-yl)-5-n-propyltetrazole]	0.05 (≈ 0.181 µM)	≤ 0.05	0.78 (≈ 2.83 µM)	0.78 (≈ 2.83 µM)	≤ 0.05	MIC [6]: 12.5 µg/mL (≈ 45.3 µM); MIC [7]: 12.5 µg/mL (≈ 45.3 µM); MIC [8]: 12.5 µg/mL (≈ 45.3 µM); MIC [9]: 25 µg/mL (≈ 90.6 µM); MIC [10]: 100 µg/mL (≈ 362 µM); MIC [11]: 100 µg/mL (≈ 362 µM); MIC [12]: 25 µg/mL (≈ 90.6 µM); MIC [13]: 6.25 µg/mL (≈ 22.6 µM); MIC [14]: 50 µg/mL (≈ 181 µM); MIC [15]: 25 µg/mL (≈ 90.6 µM)
CC(C)c1nnn(CC#CI)n1 [Compound No. 7, 2-(1'-iodopropyn-3'-yl)-5-isopropyltetrazole]	≤ 0.05	≤ 0.05	0.78 (≈ 2.83 µM)	≤ 0.05	≤ 0.05	MIC [6]: 12.5 µg/mL (≈ 45.3 µM); MIC [7]: 12.5 µg/mL (≈ 45.3 µM); MIC [8]: 12.5 µg/mL (≈ 45.3 µM); MIC [9]: 25 µg/mL (≈ 90.6 µM); MIC [10]: > 100 µg/mL; MIC [11]: 100 µg/mL (≈ 362 µM); MIC [12]: 50 µg/mL (≈ 181 µM); MIC [13]: 6.25 µg/mL (≈ 22.6 µM); MIC [14]: 25 µg/mL (≈ 90.6 µM); MIC [15]: 25 µg/mL (≈ 90.6 µM)
CCCCCc1nnn(CC#CI)n1 [Compound No. 17, 2-(1'-iodopropyn-3'-yl)-5-pentyltetrazole]	≤ 0.05	0.09 (≈ 0.296 µM)	3.13 (≈ 10.3 µM)	3.13 (≈ 10.3 µM)	0.39 (≈ 1.28 µM)	–
COc1ccc(-c2nnn(CC#CI)n2)cc1 [Compound No. 24, 2-(1'-Iodopropyn-3'-yl)-5-(p-methoxyphenyl)tetrazole]	≤ 0.05	0.09 (≈ 0.265 µM)	50 (≈ 147 µM)	12.5 (≈ 36.8 µM)	1.56 (≈ 4.59 µM)	–
Clc1ccc(-c2nnn(CC#CI)n2)cc1 [Compound No. 25, 2-(1'-iodopropyn-3'-yl)-5-(p-chlorophenyl)tetrazole]	0.09 (≈ 0.261 µM)	0.39 (≈ 1.13 µM)	–	1.56 (≈ 4.53 µM)	0.39 (≈ 1.13 µM)	zone of inhibition at 250 µg/mL [16]: 13 mm; zone of inhibition at 500 µg/mL [16]: 13 mm; zone of inhibition at 250 µg/mL [17]: 16 mm; zone of inhibition at 500 µg/mL [17]: 15 mm; zone of inhibition at 250 µg/mL [18]: 13.2 mm; zone of inhibition at 500 µg/mL [18]: 13.7 mm; zone of inhibition at 250 µg/mL [19]: 11.2 mm; zone of inhibition at 500 µg/mL [19]: 11.1 mm
Clc1ccc(-c2nnnn2CC#CI)cc1 [Compound No. 26, 1-(1'-Iodopropyn-3'-yl)-5-(p-chlorophenyl)tetrazole]	< 0.04	0.19 (≈ 0.551 µM)	0.78 (≈ 2.26 µM)	0.78 (≈ 2.26 µM)	0.78 (≈ 2.26 µM)	–
Clc1cc(Cl)cc(-c2nnn(CC#CI)n2)c1 [Compound No. 30, 2-(1'-Iodopropyn-3'-yl)-5-(3",5"-dichlorophenyl)tetrazole]	0.09 (≈ 0.237 µM)	≤ 0.05	0.78 (≈ 2.06 µM)	0.78 (≈ 2.06 µM)	0.19 (≈ 0.501 µM)	–
Cc1ccc(-c2nnn(CC#CI)n2)cc1 [Compound No. 31, 2-(1'-Iodopropyn-3'-yl)-5-(p-methylphenyl)tetrazole]	0.19 (≈ 0.586 µM)	0.39 (≈ 1.2 µM)	1.56 (≈ 4.81 µM)	0.78 (≈ 2.41 µM)	1.56 (≈ 4.81 µM)	zone of inhibition at 250 µg/mL [16]: 11.4 mm; zone of inhibition at 500 µg/mL [16]: 11.6 mm; zone of inhibition at 250 µg/mL [17]: 12 mm; zone of inhibition at 500 µg/mL [17]: 12 mm; zone of inhibition at 250 µg/mL [18]: 11.3 mm; zone of inhibition at 500 µg/mL [18]: 11.4 mm; zone of inhibition at 250 µg/mL [19]: 9.6 mm; zone of inhibition at 500 µg/mL [19]: 9.6 mm
Oc1ccc(-c2nnnn2CC#CI)cc1 [Compound No. 35, 1-(1'-iodopropyn-3'-yl)-5-(p-hydroxyphenyl)tetrazole]	0.1 (≈ 0.307 µM)	0.1 (≈ 0.307 µM)	0.39 (≈ 1.2 µM)	1.56 (≈ 4.78 µM)	100 (≈ 307 µM)	–
